Laboratory results: the NIST ThermoML archive (doi:10.1016/j.jct.2015.03.019)

Details: for molar entropy: Small (less than 1 g) adiabatic calorimetry; for vapor or sublimation pressure: Transpiration method

CC(C)(C)c1ccc(Oc2ccccc2)cc1 [4-tert-butylphenyl phenyl ether]
molar entropy [J/K/mol], 101.33 kPa
Details	Crystal	Liquid
5 K	0.2278	–
10 K	1.746	–
15 K	5.404	–
20 K	10.73	–
25 K	17.29	–
30 K	24.28	–
35 K	31.51	–
40 K	38.91	–
45 K	46.23	–
50 K	53.46	–
60 K	67.76	–
70 K	81.81	–
80 K	95.45	–
90 K	108.59	–
100 K	121.31	–
110 K	133.7	–
120 K	145.84	–
130 K	157.73	–
140 K	169.45	–
150 K	180.92	–
160 K	192.23	–
170 K	203.29	–
180 K	214.26	–
190 K	225.07	–
200 K	235.72	–
210 K	246.36	–
220 K	256.83	–
230 K	267.23	–
240 K	277.54	–
250 K	287.85	–
260 K	298.16	–
270 K	308.47	–
280 K	318.69	–
290 K	328.92	–
298.15 K	337.23	–
300 K	339.15	–
310 K	349.29	–
320 K	359.35	–
327.84 K	367.17	434.26
330 K	–	436.76
340 K	–	448.48
350 K	–	460.04
360 K	–	471.51
370 K	–	482.82

Details	mass density [kg/m3]
298.15 K, 101.33 kPa, Crystal, Pycnometric method	997.5

Details	Triple point temperature [K]	vapor or sublimation pressure [kPa]
298.46 K, Crystal	–	4.8e-05
299.37 K, Crystal	–	5.3e-05
300.45 K, Crystal	–	6.1e-05
303.52 K, Crystal	–	9.5e-05
306.47 K, Crystal	–	0.000135
310.47 K, Crystal	–	0.000222
310.5 K, Crystal	–	0.000229
312.53 K, Crystal	–	0.000285
314.45 K, Crystal	–	0.000363
315.5 K, Crystal	–	0.000405
316.51 K, Crystal	–	0.000466
317.52 K, Crystal	–	0.00055
318.5 K, Crystal	–	0.000621
319.52 K, Crystal	–	0.000689
320.55 K, Crystal	–	0.000755
321.53 K, Crystal	–	0.000855
322.52 K, Crystal	–	0.00095
323.45 K, Crystal	–	0.001031
323.55 K, Crystal	–	0.001042
324.53 K, Crystal	–	0.001212
Crystal, Adiabatic calorimetry	327.84	–
